Assay results as given in patent US10550142B2, “Quercetin-based compound” (AMOREPACIFIC CORPORATION, priority 2016, dated 2020).

Test system: skin
Assay: Cumulative skin irritation test, HRIPT (human repeated insult patch test)
Assay type: in vivo
Design: key to skin reactivity (ICDRG criteria): −: Negative (no reaction); ±: Suspicious or slight erythema, etc.; +: Weak reaction (not accompanied by vesicles), erythema, papules; ++: Severe reaction (accompanied by vesicles), erythema, papules, vesicles; +++: Strong reaction, bullae
Conditions: for Number of subjects showing ±, + or ++ reactivity 1st: 1st patch; for Number of subjects showing ±, + or ++ reactivity 2nd: 2nd patch; for Number of subjects showing ±, + or ++ reactivity 3rd: 3rd patch; for Number of subjects showing ±, + or ++ reactivity 4th: 4th patch; for Number of subjects showing ±, + or ++ reactivity 5th: 5th patch; for Number of subjects showing ±, + or ++ reactivity 6th: 6th patch; for Number of subjects showing ±, + or ++ reactivity 7th: 7th patch; for Number of subjects showing ±, + or ++ reactivity 8th: 8th patch; for Number of subjects showing ±, + or ++ reactivity 9th: 9th patch; for Average reactivity: less than 3 = safe
Experimental: HRIPT (human repeated insult patch test) was performed to evaluate the cumulative skin irritation of quercetin 3-O-[3-O″-(E)-p-coumaroyl][β-D-glucopyranosyl-(1→3)-O-α-L-rhamnopyranosyl-(1→6)-O-β-D-glucopyranoside] and quercetin 3-O-[3-O″-(E)-p-coumaroyl][α-L-rhamnopyranosyl-(1→6)-O-β-D-glucopyranoside] and determine the range of concentration applicable to the skin. Specifically, 15 healthy adult subjects were randomly selected, and 20 μl of a test composition (composition for the skin including an emulsifier, a stabilizer, purified water, etc. in addition to each of the above compounds) containing 0.5% by weight, 1% by weight or 3% by weight of each of the compounds was dropped into each chamber (IQ chamber, Epitest Ltd, Finland) The patch was applied to the upper right side of the back of the subject, and after 24 hours from the application, it was replaced with a new patch. In this way, a total of 9 patches were applied, 3 times a week for 3 weeks. The skin reaction was checked before and after application of each patch. The skin reaction was checked until after 48 hours from the removal of the final patch, and the average reactivity was calculated. The skin reaction was evaluated according to the criteria of the International Contact Dermatitis Research Group (ICDRG). In the above table, “novel substance 31” denotes quercetin 3-O-[3-O″-(E)-p-coumaroyl][β-D-glucopyranosyl-(1→3)-O-α-L-rhamnopyranosyl-(1→6)-O-β-D-glucopyranoside], and “novel substance 32” denotes quercetin 3-O-[3-O″-(E)-p-coumaroyl][α-L-rhamnopyranosyl-(1→6)-O-β-D-glucopyranoside.

[1] = 0.5% by weight, line 1 of 3 (±)
[2] = 0.5% by weight, line 2 of 3 (+)
[3] = 0.5% by weight, line 3 of 3 (++)

Question: What does the source list for CC1OC(OCC2OC(Oc3c(-c4ccc(O)c(O)c4)oc4cc(O)cc(O)c4c3=O)C(O)C(OC(=O)/C=C/c3ccc(O)cc3)C2O)C(O)C(O)C1O [Novel substance 32, quercetin 3-O-[3-O″-(E)-p-coumaroyl][α-L-rhamnopyranosyl-(1→6)-O-β-D-glucopyranoside]]?
Answer: Number of subjects showing ±, + or ++ reactivity 1st [1]: 0 number of persons; Number of subjects showing ±, + or ++ reactivity 1st [2]: 0 number of persons; Number of subjects showing ±, + or ++ reactivity 1st [3]: 0 number of persons; Number of subjects showing ±, + or ++ reactivity 2nd [1]: 0 number of persons; Number of subjects showing ±, + or ++ reactivity 2nd [2]: 0 number of persons; Number of subjects showing ±, + or ++ reactivity 2nd [3]: 0 number of persons; Number of subjects showing ±, + or ++ reactivity 3rd [1]: 0 number of persons; Number of subjects showing ±, + or ++ reactivity 3rd [2]: 0 number of persons; Number of subjects showing ±, + or ++ reactivity 3rd [3]: 0 number of persons; Number of subjects showing ±, + or ++ reactivity 4th [1]: 0 number of persons; Number of subjects showing ±, + or ++ reactivity 4th [2]: 0 number of persons; Number of subjects showing ±, + or ++ reactivity 4th [3]: 0 number of persons; Number of subjects showing ±, + or ++ reactivity 5th [1]: 0 number of persons; Number of subjects showing ±, + or ++ reactivity 5th [2]: 0 number of persons; Number of subjects showing ±, + or ++ reactivity 5th [3]: 0 number of persons; Number of subjects showing ±, + or ++ reactivity 6th [1]: 0 number of persons; Number of subjects showing ±, + or ++ reactivity 6th [2]: 0 number of persons; Number of subjects showing ±, + or ++ reactivity 6th [3]: 0 number of persons; Number of subjects showing ±, + or ++ reactivity 7th [1]: 0 number of persons; Number of subjects showing ±, + or ++ reactivity 7th [2]: 0 number of persons; Number of subjects showing ±, + or ++ reactivity 7th [3]: 0 number of persons; Number of subjects showing ±, + or ++ reactivity 8th [1]: 0 number of persons; Number of subjects showing ±, + or ++ reactivity 8th [2]: 0 number of persons; Number of subjects showing ±, + or ++ reactivity 8th [3]: 0 number of persons; Number of subjects showing ±, + or ++ reactivity 9th [1]: 0 number of persons; Number of subjects showing ±, + or ++ reactivity 9th [2]: 0 number of persons; Number of subjects showing ±, + or ++ reactivity 9th [3]: 0 number of persons; Average reactivity (0.5% by weight): 0; Number of subjects showing ±, + or ++ reactivity 1st (1% by weight, line 1 of 3 (±)): 0 number of persons; Number of subjects showing ±, + or ++ reactivity 1st (1% by weight, line 2 of 3 (+)): 0 number of persons; Number of subjects showing ±, + or ++ reactivity 1st (1% by weight, line 3 of 3 (++)): 0 number of persons; Number of subjects showing ±, + or ++ reactivity 2nd (1% by weight, line 1 of 3 (±)): 0 number of persons; Number of subjects showing ±, + or ++ reactivity 2nd (1% by weight, line 2 of 3 (+)): 0 number of persons; Number of subjects showing ±, + or ++ reactivity 2nd (1% by weight, line 3 of 3 (++)): 0 number of persons; Number of subjects showing ±, + or ++ reactivity 3rd (1% by weight, line 1 of 3 (±)): 0 number of persons; Number of subjects showing ±, + or ++ reactivity 3rd (1% by weight, line 2 of 3 (+)): 0 number of persons; Number of subjects showing ±, + or ++ reactivity 3rd (1% by weight, line 3 of 3 (++)): 0 number of persons; Number of subjects showing ±, + or ++ reactivity 4th (1% by weight, line 1 of 3 (±)): 0 number of persons; Number of subjects showing ±, + or ++ reactivity 4th (1% by weight, line 2 of 3 (+)): 0 number of persons; Number of subjects showing ±, + or ++ reactivity 4th (1% by weight, line 3 of 3 (++)): 0 number of persons; Number of subjects showing ±, + or ++ reactivity 5th (1% by weight, line 1 of 3 (±)): 0 number of persons; Number of subjects showing ±, + or ++ reactivity 5th (1% by weight, line 2 of 3 (+)): 0 number of persons; Number of subjects showing ±, + or ++ reactivity 5th (1% by weight, line 3 of 3 (++)): 0 number of persons; Number of subjects showing ±, + or ++ reactivity 6th (1% by weight, line 1 of 3 (±)): 0 number of persons; Number of subjects showing ±, + or ++ reactivity 6th (1% by weight, line 2 of 3 (+)): 0 number of persons; Number of subjects showing ±, + or ++ reactivity 6th (1% by weight, line 3 of 3 (++)): 0 number of persons; Number of subjects showing ±, + or ++ reactivity 7th (1% by weight, line 1 of 3 (±)): 0 number of persons; Number of subjects showing ±, + or ++ reactivity 7th (1% by weight, line 2 of 3 (+)): 0 number of persons; Number of subjects showing ±, + or ++ reactivity 7th (1% by weight, line 3 of 3 (++)): 0 number of persons; Number of subjects showing ±, + or ++ reactivity 8th (1% by weight, line 1 of 3 (±)): 0 number of persons; Number of subjects showing ±, + or ++ reactivity 8th (1% by weight, line 2 of 3 (+)): 0 number of persons; Number of subjects showing ±, + or ++ reactivity 8th (1% by weight, line 3 of 3 (++)): 0 number of persons; Number of subjects showing ±, + or ++ reactivity 9th (1% by weight, line 1 of 3 (±)): 0 number of persons; Number of subjects showing ±, + or ++ reactivity 9th (1% by weight, line 2 of 3 (+)): 0 number of persons; Number of subjects showing ±, + or ++ reactivity 9th (1% by weight, line 3 of 3 (++)): 0 number of persons; Average reactivity (1% by weight): 0; Number of subjects showing ±, + or ++ reactivity 1st (3% by weight, line 1 of 3 (±)): 0 number of persons; Number of subjects showing ±, + or ++ reactivity 1st (3% by weight, line 2 of 3 (+)): 0 number of persons; Number of subjects showing ±, + or ++ reactivity 1st (3% by weight, line 3 of 3 (++)): 0 number of persons; Number of subjects showing ±, + or ++ reactivity 2nd (3% by weight, line 1 of 3 (±)): 0 number of persons; Number of subjects showing ±, + or ++ reactivity 2nd (3% by weight, line 2 of 3 (+)): 0 number of persons; Number of subjects showing ±, + or ++ reactivity 2nd (3% by weight, line 3 of 3 (++)): 0 number of persons; Number of subjects showing ±, + or ++ reactivity 3rd (3% by weight, line 1 of 3 (±)): 0 number of persons; Number of subjects showing ±, + or ++ reactivity 3rd (3% by weight, line 2 of 3 (+)): 0 number of persons; Number of subjects showing ±, + or ++ reactivity 3rd (3% by weight, line 3 of 3 (++)): 0 number of persons; Number of subjects showing ±, + or ++ reactivity 4th (3% by weight, line 1 of 3 (±)): 0 number of persons; Number of subjects showing ±, + or ++ reactivity 4th (3% by weight, line 2 of 3 (+)): 0 number of persons; Number of subjects showing ±, + or ++ reactivity 4th (3% by weight, line 3 of 3 (++)): 0 number of persons; Number of subjects showing ±, + or ++ reactivity 5th (3% by weight, line 1 of 3 (±)): 0 number of persons; Number of subjects showing ±, + or ++ reactivity 5th (3% by weight, line 2 of 3 (+)): 0 number of persons; Number of subjects showing ±, + or ++ reactivity 5th (3% by weight, line 3 of 3 (++)): 0 number of persons; Number of subjects showing ±, + or ++ reactivity 6th (3% by weight, line 1 of 3 (±)): 0 number of persons; Number of subjects showing ±, + or ++ reactivity 6th (3% by weight, line 2 of 3 (+)): 0 number of persons; Number of subjects showing ±, + or ++ reactivity 6th (3% by weight, line 3 of 3 (++)): 0 number of persons; Number of subjects showing ±, + or ++ reactivity 7th (3% by weight, line 1 of 3 (±)): 0 number of persons; Number of subjects showing ±, + or ++ reactivity 7th (3% by weight, line 2 of 3 (+)): 0 number of persons; Number of subjects showing ±, + or ++ reactivity 7th (3% by weight, line 3 of 3 (++)): 0 number of persons; Number of subjects showing ±, + or ++ reactivity 8th (3% by weight, line 1 of 3 (±)): 0 number of persons; Number of subjects showing ±, + or ++ reactivity 8th (3% by weight, line 2 of 3 (+)): 0 number of persons; Number of subjects showing ±, + or ++ reactivity 8th (3% by weight, line 3 of 3 (++)): 0 number of persons; Number of subjects showing ±, + or ++ reactivity 9th (3% by weight, line 1 of 3 (±)): 0 number of persons; Number of subjects showing ±, + or ++ reactivity 9th (3% by weight, line 2 of 3 (+)): 0 number of persons; Number of subjects showing ±, + or ++ reactivity 9th (3% by weight, line 3 of 3 (++)): 0 number of persons; Average reactivity (3% by weight): 0; skin reactivity (ICDRG criteria) (within the content range 0.5, 1, 3% by weight, 9 patches, 15 subjects): −
